Data set [1] in a line: Brain penetration index (BPI) determination, brain uptake relative to liver. Type of data set: in vivo, male balb C mice. The following applies: for crossing of the blood brain barrier (in words): variations of the carrier. The text has this:
A brain penetration index (BPI) determination was used as a criterion for measuring the capacity of a compound to cross the blood brain barrier. Shashoua, V. E., Jacob, J. N., Ridge, R., Campbell, A. and Baldessarini, R. J., J. Med. Chem. 27, 659 (1984). The BPI is a measure of the uptake of a compound by the brain relative to its uptake by the liver. The liver is chosen as a reference since it is an organ which has no barrier to diffusable molecules present in the blood. Moreover, even if subcutaneous injections are used, the injected material tends to remain largely at the site of the injection and slowly diffuse into the circulation. Therefore, the amount of material in the liver will reflect the amount available rather than the initial dose injected.
Measurements of the quantity of the drug present in the brain and liver were measured at five minutes after a subcutaneous injection and were used to calculate the BPI, the equation being: […]
For these measurements, compound 8739 was synthesized from ^14C-labeled dopamine. Thirty μCi of dopamine labeled hydrochloride was mixed with 0.1 mg of unlabeled dopamine hydrobromide and reacted with a two-fold excess of DHA anhydride. The reaction was run overnight; the product was then evaporated to dryness and dissolved in ethanol. The compound was identified as 8739 by its migration properties on thin-layer chromatography using chloroform:methanol as one solvent and dimethylformamide (DMF) as the other. The migration properties were equivalent to those of the unlabeled product.
^14C-labeled 8739 was dissolved in 15% propylene glycol in 0.1 M NaHCO3 and then injected subcutaneously (s.c.) into male balb C mice (20±2 g). After 5 minutes the animals were sacrificed by cervical fracture and the brain and liver were dissected out, weighed and homogenized in 8 and 10 ml of Brain Protein Solvent (BPS) buffer, respectively [BPS=2% sodium dodecyl sulfate in 0.03 M Tris, 6 M urea, pH 7.6, 0.01 M EDTA and 0.14 N NaCl]. Aliquots were then counted for ^14C content in 10 ml of a liquid scintillation fluid, Liquiscent (National Diagnostic Company, Somerville, N.J.) using a Beckman liquid scintillation counter. The ^14C counts were then used to calculate the total quantity of compound 8739 present in the brain per gram of tissue as compared to that in the liver. The ratio of the amount in the brain as a percent of that present in liver was determined.

Data set [2] is described as follows: Food consumption measurements. The data set is classed as in vivo, balb-c mice. The following applies: variations of the carrier. The procedure:
The effect of compound 8739 on food consumption was determined for balb-c mice that were food deprived for 24 hr, with water freely available. The six test mice were given an i.p. injection of compound 8739 as a solution in 15% propylene glycol in 0.1 M NaHCO3, a total volume of between about 0.1-0.3 ml. The six control mice received the same volume of vehicle, but no drug. The quantity of “mouse chow” eaten during the 60-min period following the injections was determined. The results, also shown in FIG. 1, are expressed as the percent decrease in food consumption for the test group versus the control group. […] The decrease was dose dependent, with higher doses of compound 8739 causing greater decrease in food intake. The same experiment was conducted using oral administration of compound 8739.

For data set [3] the following is noted: previous reports, Chan and Fishman, SCIENCE (1978); cited from earlier work.
The nature of data set [4]: Open-field motor activity measurement. Type of data set: in vivo, balb-c mice. The conditions noted are these: administered at the same dose as compound 8739. The procedure: The effect of compound 8739 on general motor activity was determined. The general motor activity of balb-c mice was measured in a Stoelting electronic activity monitor apparatus during a 90-min period following an intraperitoneal injection of the compound as a solution in 15% propylene glycol in 0.1 M NaHCO3. A detailed description of the apparatus is reported in Stewart R. J., Campbell A., Spark G. and Balessarini R. J. Psychopharmacol. 60, 281 (1979).
The test group (six mice) received an i.p. injection of the drug in a vehicle (15% propylene glycol in 0.1 M NaHCO3, a total volume of between about […].). The six control mice received the same volume of vehicle, but no drug. The results (Shown in FIG. 1,) are expressed as the percent decrease in open field activity for the test group versus the control group. […] The response was dose dependant with higher doses of compound 8739 resulting in a greater decrease in general motor activity.
The effects of the mode of delivery of Compound 8739 (oral vs. i.p.) on the general open-field activity of mice (n=6) was assessed. […] A 40-50% decrease in activity occurred when either delivery method was employed.

Data set [5] in a line: Circling behavior in rats with unilateral nigrostriatal lesions. Type of data set: in vivo. The following applies: for AVERAGE ROTATION SCORES (Rotations/minutes) Contralateral / AVERAGE ROTATION SCORES (Rotations/minutes) Ipsilateral: 30-min period; for circling behavior (in words): rats with nigrostriatal lesions, i.p. The method, then:
Dopamine agonists such as apomorphine and amphetamine cause circling behavior in animals with nigrostriatal lesions.
Unilateral nigrostriatal lesions in rats were produced by administering unilateral injections of 6-OH dopamine into the nigrostriatum pathway. Seven days later, these animals were i.p. injected with the test drugs and circling behavior was recorded as rotations per minute during a 30-min period in the test apparatus, Ungerstedt U. and Arbathnott G. W., Brain Res. 24, 485-493 (1970).

The conditions of data set [6]: reported in the literature; cited from earlier work.
The conditions of data set [7]: animal tests, background; cited from earlier work.
A short description of data set [8]: Test for tolerance: food consumption during long-term administration. Type of data set: in vivo, mice. The conditions noted are these: 2 mg/kg i.p. daily for 21 days. The method, then: The effect of long-term administration of compound 8739 on the pattern of food consumption of mice was compared to the long-term effects of the administration of amphetamine. Daily i.p. injections of compound 8739 (20 mg/kg) were given to test animals and daily i.p. injections of amphetamine (2 mg/kg) were given to control animals for 21 days. 24 hours after the first injection and about every five days after that, the animals were food-deprived for 24 hours with water freely available, and then were tested for food consumption for one-hour beginning at five minutes after receiving their daily injection.
FIG. 4 plots the percent decrease in food consumption versus time.

Where two headings read alike, the source gives them in different places.

On to `CCCCCCCCCCCCCCCCCCCCCC(=O)NCCc1ccc(O)c(O)c1`, for which the “crossing of the blood brain barrier (in words)” value in data set [1] is “does not effectively cross the blood brain barrier”. Also, in data set [2], the “activity as an appetite-suppressant (in words)” value was “essentially inactive”.

For the molecule `CCC=CCC=CCC=CCC=CCC=CCC=CCCC(=O)O` [carrier molecule (T), 4, 7, 10, 13, 16, 19 docosahexa-enoic acid, reference compound], in data set [3], the “swelling of the brain” value was “induce swelling of the brain”. The “changes in open-field activity” value in data set [4] is listed as “No significant changes”.

Regarding `CN1CCc2cccc3c2[C@H]1Cc1ccc(O)c(O)c1-3` [Apomorphine], in data set [5] (0.1 mg/kg i.p.), the “AVERAGE ROTATION SCORES (Rotations/minutes) Contralateral” value came to 4.8 Rotations/minutes and the “AVERAGE ROTATION SCORES (Rotations/minutes) Ipsilateral” value is recorded as 0.1 Rotations/minutes. Besides, in data set [5] (0.5 mg/kg i.p.), the “AVERAGE ROTATION SCORES (Rotations/minutes) Contralateral” value stood at 13.7 Rotations/minutes and the “AVERAGE ROTATION SCORES (Rotations/minutes) Ipsilateral” value is listed as 0 Rotations/minutes. Besides, in data set [5], the “circling behavior (in words)” value is “rapid circling behavior to the contralateral side of the lesion”.

On to `NCCc1ccc(O)c(O)c1` [Dopamine], for which, in data set [4], the “changes in open-field activity” value is reported as “No significant changes”. The “brain penetration index (BPI)” value in data set [1] was “about 4”. Further, in data set [1] (BPI=[brain]/[liver]x100, 5 minutes after s.c. injection), the “BPI Value (%)” value turned out to be 4%.

For `O=C[C@H](O)[C@@H](O)[C@H](O)[C@H](O)CO` [D-glucose], in data set [6], the “BPI Value (%)” value is reported as 33% and the BPI index was 33.

As for `CCCCCCCCCCCC(=O)NCCc1ccc(O)c(O)c1`, the “crossing of the blood brain barrier (in words)” value in data set [1] is recorded as “does not effectively cross the blood brain barrier”. In data set [2], the “activity as an appetite-suppressant (in words)” value is “completely inactive”.

Regarding `CC(N)Cc1ccccc1` (stereo not drawn) [Amphetamine], the “AVERAGE ROTATION SCORES (Rotations/minutes) Contralateral” value in data set [5] (3.0 mg/kg i.p.) is recorded as 0.4 Rotations/minutes; in data set [5] (5.0 mg/kg i.p.) it was 0.92 Rotations/minutes. Besides, the “AVERAGE ROTATION SCORES (Rotations/minutes) Ipsilateral” value in data set [5] (3.0 mg/kg i.p.) is listed as 2.5 Rotations/minutes; in data set [5] (5.0 mg/kg i.p.), 3.32 Rotations/minutes. The “circling behavior (in words)” value in data set [5] is given as “circling rapidly to the ipsilateral lesion side”. Further, in data set [7], the “time within which tolerance develops” value was 3 to 15 days. Besides, the “decrease in food intake over time” value in data set [8] is recorded as “virtually disappeared after 15 days”. Besides, in data set [8] (food intake), the tolerance entry was “complete tolerance”.

Source of the values: patent US6407137B2, “Dopamine analog amide” (Protarga, Inc., priority 1988, dated 2002).
